Reference: patent publication US20170196987A1, “METHODS FOR TREATING MULTIPLE SCLEROSIS” (MedWell Laboratories Ltd., priority 2014, published 2017)

Tests used:
[1] = tested on: Experimental Autoimmune Encephalomyelitis (EAE) mice; assay: Efficacy of oral and ip MWL-001, MP and their combination in EAE (model of brain inflammation, MS), Example 2; format: in vivo, female C57Bl mice; conditions: for Inhibition of the clinical signs of the disease: day 0 to day 15
Procedure: Induction of EAE: Disease was induced in female C57Bl mice (6-8 weeks old; Harlan). Myelin Oligodendrocyte Glycoprotein (MOG 35-55) (Hadassah ein karem) was dissolved in saline (3 mg/ml) and emulsified (1:1) with Complete Freund's Adjuvant (CFA) (gibco; containing 5 mg of killed MT). 200 microliter of emulsion (containing […] of MOG) was injected into the right flank, and each mouse received a supplement of 250 ng of pertussis toxin (List) i.p. Another 250 ng of pertussis toxin (PT) were injected 24 hours later. Mice were observed daily from the 9th day post-EAE and the clinical signs were scored as described in Table III below.
MWL-001 was dissolved in ethanol (60 mg/ml), wherein in one group MWL-001 was administered ip and in a second group MWL-001 was administered orally by gavage at a dose of 50 mg/kg (10% stock in saline). The MWL-001 was administered once a day (from day 0) at 9 am. Treatment ended on day 15 post inoculation. Each dose was administered in a volume of 0.2 ml/mouse
A third group of animals was treated ip with a dose of 25 mg/kg starting on day 7 and ending on day 15
The number of animals in each of the above five groups was between 9 and 11.
Calculation of the incidence of disease: The number of sick animals in each group was summed and percentage of sick animals in each group calculated.
Calculation of the mean maximal score (MMS): The maximal scores of each of the 10 mice in the group were summed and the mean maximal score of each group was calculated as follows:Σ maximal score of each mouse / number of mice in the group.
Calculation of the group mean score (GMS): The scores of each of the 10 mice in the group was summed and the mean score per day calculated. The group mean score was calculated as follows: Σ total score of each mouse per day/number of mice in the group.

[2] = tested on: spinal cord of EAE animal; assay: Histopathology of H&E stained spinal cord sections of EAE animals; format: in vivo, mice
Excerpt: FIG. 5 (A, B and C) is a histopathological photograph of a spinal cord section stained with H&E of control untreated EAE animal. P=parenchymal infiltrates, M=meningeal infiltrates and D=diffused infiltrates.
FIG. 6 (A and B) is a histopathological photograph of a spinal cord section stained with H&E of EAE animal treated with MWL-001 (i.p.) on day 0.
FIG. 7 (A and B) is a histopathological photograph of a spinal cord section stained with H&E of EAE animal treated with MWL-001 (i.p.) on day 10.
Histopathological photographs are presented as FIGS. 5, 6 and 7).

[3] = tested on: Experimental Autoimmune Encephalomyelitis (EAE) mice; assay: Efficacy of conjugate MW001 in MOG 35-55 induced EAE (model of multiple sclerosis), Example 1; format: in vivo, female C57B1 mice
Procedure: Disease was induced in female C57B1 mice (6-8 weeks old; Harlan). Myelin Oligodendrocyte Glycoprotein (MOG) 35-55 was dissolved in saline (3 mg/ml) and emulsified (1:1) with Complete Freund's Adjuvant (CFA) (gibco; containing 5 mg of killed mycobacterium tuberculosis (MT). 200 μl of the emulsion (containing […] of MOG) were injected into the right flank of each mouse, wherein and each mouse received a 250 ng supplement of pertussis toxin (PT, List) by intraperitoneal injection. Another 250 ng of PT were injected into the right flank of each mouse 24 hours later. The mice were observed daily from the 9th day post-EAE and the clinical signs were scored as described in Table 1 below:
The MW-001 conjugate was dissolved in ethanol (60 mg/ml) and administered by intraperitoneal injection, at a dose of 50 mg/kg (10% stock in saline) twice a day, once at 9 am and once at […]. Each dose was administered in a volume of 0.2ml/mouse (˜20 g). One group of animals was treated starting at day 0 (relating to the first day on which the induction of the disease started) and the other starting at day 10, when clinical signs first appeared. […]
Calculation of the incidence of disease: The number of sick animals in each group was summed and percentage of sick animals in each group was calculated.
Calculation of the mean maximal score (MMS): The maximal scores of each of the 10 mice in the group was summed and the mean maximal score of each group was calculated as follows:Σmaximal score of each mouse/number of mice in the group.
Calculation of the group mean score (GMS):The scores of each of the 10 mice in the group was summed and the mean score per day calculated. The group mean score was calculated as follows: Σtotal score of each mouse per day/number of mice in the group.
Mean maximal score (MMS): defined as the disease severity; scored on a scale of 0-5 with graduations of 0.5 for intermediate clinical signs. The score is described in table-1

[4] = MWL-001 i.p. treatment started at day 10, FIG. 7 A and B
[5] = MW-001 50 mg/kg ip twice a day, treatment started on day 0, monitored day 0 to day 20
[6] = MW-001 50 mg/kg ip twice a day, treatment started on day 10, monitored day 0 to day 20

Structure (SMILES): CC/C=C/C/C=C/C/C=C/C/C=C/C/C=C/C/C=C/CCC(=O)N1CC(O)CC1C(=O)O (stereo not shown) [MW-001]
- Severity of disease (clinical score) ([1]; 25 mg/kg ip, day 7 to day 15, 5 in the control group, FIG. 3): 3
- Inhibition of appearance of clinical signs ([1]; 25 mg/kg ip, day 7 to day 15, FIG. 3): did not inhibit their appearance on day 10-11 post inoculation
- Inhibition of the clinical signs of the disease ([1]; 50 mg/kg once a day ip, FIG. 2): effective in inhibiting the clinical signs of the disease
- Inhibition of the clinical signs of the disease ([1]; 50 mg/kg once a day orally by gavage, FIG. 2): effective in inhibiting the clinical signs of the disease
- Clinical signs after cessation of the drug ([1]; 50 mg/kg once a day orally or ip, a few days after treatment ended on day 15, FIG. 2): mild signs of the disease appeared for a short period of time
- Mononuclear cell infiltrates in the spinal cord (meningeal) ([2]; MWL-001 i.p. on Day 0, compared to untreated, FIG. 6 A and B): very few meningeal infiltrates
- Mononuclear cell infiltrates in the spinal cord (meningeal) [2, 4]: very few meningeal infiltrates
- Parenchymal or diffused infiltrates in the spinal cord [2, 4]: no parenchymal or diffused infiltrates
- Effectiveness in preventing and ameliorating EAE (overall, vs untreated group) ([3]; 50 mg/kg ip twice a day, started on day 0 or day 10): highly effective in preventing and ameliorating EAE in mice
- Disease incidence (sick mice/total) [3, 5]: **1/10
- Mean day of onset [3, 5]: 15
- Mean disease duration [3, 5]: 0.6 ± 0.19 days
- Mean maximal score [3, 5]: 0.075 ± 0.02
- Mean score (whole group) [3, 5]: 0.2 ± 0.06
- Incidence (#dead, including sacrificed) [3, 6]: 11/11
- Mean day of onset [3, 6]: 11 ± 0.09
- Mean disease duration [3, 6]: 8.90 ± 0.2 days
- Mean maximal score [3, 6]: 2.72 ± 0.14
- Mean score (whole group) [3, 6]: 1.34 ± 0.08
